Measurements from US4166125A, “2-Oxo-phenylbutanoic acid derivatives” (Grelan Pharmaceutical Co., Ltd., priority 1977, dated 1979).

Assays:
[1] = system: gross behaviour of the rats; assay: Gross behaviour (2) (oral administration); settings: oral, 500, 1000, 2000 and 4000 mg/Kg, 4 hours
Protocol: In 0.3% CMC-Na solution was suspended 2-oxo-3-[4-(1-oxo-2-isoindolinyl)phenyl]butanamide in at a concentration of 20%. The 20% CMC-Na suspension was administered orally to 3 male rats in each group (Sprague-Dawley strain) weighing 150 to 200 g. The dosage of the compound were 500, 1000, 2000 and 4000 mg/Kg. […] To rats of a control group was administered orally only 0.3% CMC-Na solution.

[2] = Acute toxicity (1) (oral administration); assay type: in vivo; settings: in vivo; mouse, oral, 7 days
Protocol: (§1) After administration of the compound, the number of mice that died during 7 days was observed, and LD50 value was calculated on the basis of the mortality.

mice = assay: Acute toxicity (1) (oral administration); assay type: in vivo; settings: mice
Protocol: as §1

carrageenin edema = assay: Inhibitory effect on carrageenin edema (oral administration); assay type: in vivo, rat (Sprague-Dawley strain)
Protocol: Inhibitory effect on carrageenin edema.
The experiment was carried out according to a method conforming to Van Arman, C. […] One hour after the administration of the test compound, 0.1 ml of 1% carrageenin solution in physiological saline was injected subcutaneously into the plantar sarface of the right hind paws of the rats. One hour after injection of carrageenin, the volume of the injected paws was measured hourly for 4 hours. Inhibition percent to carrageenin edema (%)* was calculated in comparison with the volume of paws of rats of a control group, to which only 0.3% CMC-Na solution was orally administered. [formula]

rats = assay: Acute toxicity (2) (oral administration); assay type: in vivo; settings: rats
Protocol: (§2) After administration of the compound, the number of rats that died during 7 days was observed, and LD50 value was calculated on the basis of the mortality.

[3] = Acute toxicity (2) (oral administration); assay type: in vivo; settings: in vivo; rat, oral, 7 days
Protocol: as §2

adjuvant arthritis = assay: Inhibition to adjuvant arthritis (oral administration); assay type: in vivo, rat (Sprague-Dawley strain); settings: for Increase in body weight / Weight of the organs: Adrenal glands / Weight of the organs: Spleen / Weight of the organs: Thymus: once a day for 7 days
Protocol: Inhibition to adjuvant arthritis.
According to a method conforming to Fujihira et al [Oyo Yakuri, 5, 169, (1971)], liquid paraffin suspension of Mycobacterium butiricum (hereinafter abbreviated as adjuvant) was injected subcutaneously to right hind paws of male rats (Spraque-Dawley strain) weighing 150 to 170 g in an amount of 0.3 mg/0.05 ml/rat. 14 Days after adjuvant injection, the rats, paws of which swelled to a similar degree, were selected and they were separated into groups. From the 15th day after adjuvant injection, each test compound suspended in 0.3% CMC-Na solution was orally administered once a day for 7 days to the 7 rats in each group in the dose shown in the following table 2.
The 16th, 19th and 22nd days after adjuvant injection the volume of left hand paws (i.e. paws not treated with the adjuvant) of the rats and their body weight were measured. Inhibition percent to the arthritis (edema) is calculated according to the same equation as that used in Experiment 1, and the value of ED40 is calculated on the basis of the inhibition percent. Then the rats were sacrificed with ether and the weight of their thymus, adrenal glands and spleen was determined.

gastric mucosa [4] = assay: Effect on gastric mucosa (1) (oral administration); assay type: in vivo, mouse (ddY-strain); set-up: unit not given here; settings: mice, 4 hours
Protocol: 4 Hours after the administration, the mouse was sacrificed with ether, and its stomach was removed. The stomach was treated with 5% formalin for 3 minutes, and gastric mucosa was observed under a stereoscopic microscope. When gastric lesion in the mucosa was found, the length of each lesion was measured. Degree of gastric damage (i.e. GD50)* was calculated on the basis of the length of the lesion of each mouse.
Remark *: GD50 : The value corresponding to the relative frequency of 50% on the normal probability paper plotted the length of gastric lesions of each mouse.

[5] = system: pain threshold of hind paws (Brewer's yeast); assay: Analgesic activity, Randall and Selitto method (oral administration); assay type: in vivo, rat (Sprague-Dawley strain)
Protocol: Randall and Selitto method
According to a method conforming to Randall, L. O. and Selitto, J. J. [Archives Internationales de Pharmacodynamie et de Therapie, 111, 409, (1957)], 0.1 ml of 10% Brewer's yeast suspension in physiological saline was injected subcutaneously into the plantar surface of the right hind paws of 5 male rats in each group (Sprague-Dawley strain) weighing 90 to 110 g. 2 Hours after administration of the yeast suspension, each test compound suspended in 0.3% CMC-Na solution was orally administered to the rats in an amount of 1.0 ml per 100 g of body weight of the rat. 30 Minutes, 60 minutes and 120 minutes after administration of the test compounds, threshold values of left and right hind paws of the rats were measured by an electric pressure device made by Daiwa Kinzoku Co., Ltd. (Japan). The change of threshold was obtained by comparing the pain threshold obtained in a group after the yeast injection with that obtained before the yeast injection, in the same group as above. Increasing percent of pain threshold of the test compound was calculated on the basis of the mean changes of threshold of the test group and of that of the control group. Rats of the control group were administered orally only 0.3% CMC-Na solution.
According to the Litchfield-Wilcoxon method [The Journal of Pharmacology and Experimental Therapeutics, 96, 96, (1949)], ED50 value was calculated as follows on the basis of the increasing percent of pain threshold;

gastric mucosa [6] = assay: Effect on gastric mucosa (2) (oral administration); assay type: in vivo, rat (Sprague-Dawley strain); settings: rats, 4 hours
Protocol: 4 Hours after the administration, the rat was sacrificed with ether, and its stomach was removed. The stomach was treated with 5% formalin for 3 minutes, and gastric mucosa was observed under a stereoscopic microscope. When gastric lesion in the mucosa was found, the number of the lesion in the mucosa was counted.

[7] = oral, 500, 1000, 2000 and 4000 mg/Kg, 7 days

## CC(C(=O)C(N)=O)c1ccc(N2Cc3ccccc3C2=O)cc1 (stereo not shown) [2-oxo-3-[4-(1-oxo-2-isoindolinyl)phenyl]butanamide]
[1]
  Abnormal behaviour (depression to spontaneous activity, loss of righting reflex, tremor, convulsion, abnormal gait, loss of pinna reflex, loss of corneal reflex, abnormality of respiration): not observed
[2]
  LD50 at 168 h: > 4000 mg/kg
mice; after 7 days
  Macroscopic observation of organs in head, thorax and abdominal cavity: No abnormality was observed
mice; [7]
  Abnormal behaviour: not observed
  Death: not observed
  Inhibition to increase of body weight: not observed
Carrageenin edema; 12.5 mg/Kg oral, 3 hour after administration
  Inhibition to carrageenin edema: 29.2 ± 6.4%
Carrageenin edema; 12.5 mg/Kg oral, 4 hour after administration
  Inhibition to carrageenin edema: 29.3 ± 4.4%
Carrageenin edema; 25 mg/Kg oral, 3 hour after administration
  Inhibition to carrageenin edema: 29.2 ± 9.0%
Carrageenin edema; 25 mg/Kg oral, 4 hour after administration
  Inhibition to carrageenin edema: 26.6 ± 8.2%
Carrageenin edema; 50 mg/Kg oral, 3 hour after administration
  Inhibition to carrageenin edema: 35.6 ± 3.9%
Carrageenin edema; 50 mg/Kg oral, 4 hour after administration
  Inhibition to carrageenin edema: 34.1 ± 1.2%
Carrageenin edema; 100 mg/Kg oral, 3 hour after administration
  Inhibition to carrageenin edema: 51.0 ± 8.6%
Carrageenin edema; 100 mg/Kg oral, 4 hour after administration
  Inhibition to carrageenin edema: 42.8 ± 6.9%
Carrageenin edema; Rattus norvegicus, oral, from inhibition percent to edema at 3 hours after administration, read-out: ED40
  ED40: 48 mg/kg
rats; after 7 days
  Macroscopic observation of organs in head, thorax and abdominal cavity: No abnormality was observed
rats; [7]
  Abnormal behaviour: not observed
  Death: not observed
  Inhibition to increase of body weight: not observed
[3]
  LD50 at 168 h: > 4000 mg/kg
Adjuvant arthritis; 25 mg/Kg oral, 1st day
  Inhibition to adjuvant arthritis: 24.0%
Adjuvant arthritis; 25 mg/Kg oral, 4th day
  Inhibition to adjuvant arthritis: 25.1%
Adjuvant arthritis; 25 mg/Kg oral, 7th day
  Inhibition to adjuvant arthritis: 35.2%
Adjuvant arthritis; 25 mg/Kg oral
  Increase in body weight: 28.4 g
  Weight of the organs: Adrenal glands: 12.5 ± 1.3 mg/100g of body weight
  Weight of the organs: Spleen: 441.1 ± 39.6 mg/100g of body weight
  Weight of the organs: Thymus: 146.0 ± 7.3 mg/100g of body weight
Adjuvant arthritis; 100 mg/Kg oral, 1st day
  Inhibition to adjuvant arthritis: 32.7%
Adjuvant arthritis; 100 mg/Kg oral, 4th day
  Inhibition to adjuvant arthritis: 34.5%
Adjuvant arthritis; 100 mg/Kg oral, 7th day
  Inhibition to adjuvant arthritis: 45.3%
Adjuvant arthritis; 100 mg/Kg oral
  Increase in body weight: 40.7 g
  Weight of the organs: Adrenal glands: 11.5 ± 0.7 mg/100g of body weight
  Weight of the organs: Spleen: 414.2 ± 28.8 mg/100g of body weight
  Weight of the organs: Thymus: 147.2 ± 15.6 mg/100g of body weight
Gastric mucosa [4]; 100 mg/Kg oral
  Degree of gastric damage (GD50): 1.0
Gastric mucosa [4]; 200 mg/Kg oral
  Degree of gastric damage (GD50): 7.0
Gastric mucosa [4]; 400 mg/Kg oral
  Degree of gastric damage (GD50): 2.5
[5]; 25 mg/Kg oral, 30 minutes after administration
  Increasing percent of pain threshold: 15.6 ± 10.3%
[5]; 25 mg/Kg oral, 60 minutes after administration
  Increasing percent of pain threshold: 14.1 ± 13.7%
[5]; 25 mg/Kg oral, 120 minutes after administration
  Increasing percent of pain threshold: 22.1 ± 18.5%
[5]; 50 mg/Kg oral, 30 minutes after administration
  Increasing percent of pain threshold: 46.9 ± 4.6%
[5]; 50 mg/Kg oral, 60 minutes after administration
  Increasing percent of pain threshold: 32.7 ± 5.9%
[5]; 50 mg/Kg oral, 120 minutes after administration
  Increasing percent of pain threshold: 48.6 ± 9.0%
[5]; 100 mg/Kg oral, 30 minutes after administration
  Increasing percent of pain threshold: 46.1 ± 6.6%
[5]; 100 mg/Kg oral, 60 minutes after administration
  Increasing percent of pain threshold: 32.4 ± 7.0%
[5]; 100 mg/Kg oral, 120 minutes after administration
  Increasing percent of pain threshold: 39.0 ± 7.3%
[5]; 200 mg/Kg oral, 30 minutes after administration
  Increasing percent of pain threshold: 57.3 ± 14.8%
[5]; 200 mg/Kg oral, 60 minutes after administration
  Increasing percent of pain threshold: 39.7 ± 8.9%
[5]; 200 mg/Kg oral, 120 minutes after administration
  Increasing percent of pain threshold: 39.6 ± 6.5%
[5]; Rattus norvegicus, oral, Litchfield-Wilcoxon method, from increasing percent of pain threshold
  ED50: 100 mg/kg
Gastric mucosa [6]; 50 mg/Kg oral
  Mean number of gastric lesion: 0
Gastric mucosa [6]; 100 mg/Kg oral
  Mean number of gastric lesion: 0
Gastric mucosa [6]; 200 mg/Kg oral
  Mean number of gastric lesion: 0.3
Gastric mucosa [6]; 400 mg/Kg oral
  Mean number of gastric lesion: 1.6
Gastric mucosa [6]; 800 mg/Kg oral
  Mean number of gastric lesion: 0.4
